# From patent publication US20080260722A1, “Method for High Efficiency Survival/Proliferation of Human Embyonic Stem Cells and Human Embryo Survival in Culture” (The Johns Hopkins University Johns Hopkins Technology …, priority 2004, published 2008)
# B1: neurotrophin 4 (protein, UniProt P34130 81-210, looked up)
# Neurotrophin-4: GVSETAPASRRGELAVCDAVSGWVTDRRTAVDLRGREVEVLGEVPAAGGSPLRQYFFETRCKADNAEEGGPGAGGGGCRGVDRRHWVSECKAKQSYVRALTADAQGRVGWRWIRIDTACVCTLLSRTGRA
# notes: TRK ligand, neurotrophin purchased from Peprotech
# B2: neurotrophin 3 (protein, UniProt P20783 139-257, looked up)
# Neurotrophin-3: YAEHKSHRGEYSVCDSESLWVTDKSSAIDIRGHQVTVLGEIKTGNSPVKQYFYETRCKEARPVKNGCRGIDDKHWNSQCKTSQTYVRALTSENNKLVGWRWIRIDTSCVCALSRKIGRT
# notes: as for B1
# B3: brain derived neurotrophic factor (protein, UniProt P23560 19-247, looked up)
# Neurotrophic factor BDNF …: APMKEANIRGQGGLAYPGVRTHGTLESVNGPKAGSRGLTSLADTFEHVIEELLDEDQKVRPNEENNKDADLYTSRVMLSSQVPLEPPLLFLLEEYKNYLDAANMSMRVRRHSDPARRGELSVCDSISEWVTAADKKTAVDMSGGTVTVLEKVPVSKGQLKQYFYETKCNPMGYTKEGCRGIDKRHWNSQCRTTQSYVRALTMDSKKRIGWRFIRIDTSCVCTLTIKRGR
# notes: as for B1
# Legend:
# hES cells [1] = assay: low-density survival assay in MEF-CM with TRK inhibitors; format: cell-based, human; conditions: increasing inhibitor concentrations, versus DMSO vehicle
# Procedure: TRK signaling and survival can be blocked by pharmacological inhibition; TRK inhibitors were added to hES cells plated with MEF-CM in the low-density survival assay; hES cells were exposed to increasing concentrations of a GW441756, K252A, or vehicle (DMSO).
# Human ES cell lines H1 and H9 were cultured as described by Thornson and colleagues^15 in high glucose DMEM supplemented with L-glutanine, non-essential amino acids, serum replacement (Invitrogen) and 4 ng/ml basic Fibroblast growth factor (Invitrogen). Mouse embryo fibroblasts (MEFs) (Specialty Media). were plated at 5-7×10^6 cells/ml. To prepare single cell suspensions of hES cells, the cells were washed twice with PBS, then incubated in 0.05% trypsin/EDTA (InVitrogen) for 5 minutes at 37° C. The cells were triturated with a 5-ml pipette until a single cell suspension was obtained. […] For low-density survival assays, trypsinized cells were counted using a hemocytometer and 500 cells were plated in each well of 96-well plate containing MEFs or coated with Matrigel (BD Biosciences). […] Individual hES cells or hES cell colonies were counted manually on an inverted microscope. […]
# To test this prediction, hES cell survival was measured using the low density survival assay in the presence or absence of two different TRK inhibitors, GW441756 and K252a^17-19.
# TRKs = conditions: cited from earlier work
# hES cells [2] = assay: low-density survival assay in NTs without bFGF with pathway inhibitors; format: cell-based, human; conditions: single cells at low density in NTs, no bFGF, increasing inhibitor concentrations
# Procedure: FIG. 8. PI-3K activity is required for hES cell survival; a. […] NTs have differential effects on AKT and MEK1/2 phosphorylation; hES cells were grown in the presence or absence of NTs (but without bFGF) and cell lysates probed with antibodies to phospho-AKT or phospho-MEK1/2; in the absence of NTs, a weak phospho-AKT band is observed; upon stimulation of hES cells with NTs a stronger band is observed; the intensity of the bands were compared to the total level of AKT and to a loading control (Beta-tubulin); in contrast no change in the level of phospho-MEK1/2 was observed by comparison with the controls.
# Human ES cell lines H1 and H9 were cultured as described by Thornson and colleagues^15 in high glucose DMEM supplemented with L-glutanine, non-essential amino acids, serum replacement (Invitrogen) and 4 ng/ml basic Fibroblast growth factor (Invitrogen). Mouse embryo fibroblasts (MEFs) (Specialty Media). were plated at 5-7×10^6 cells/ml. To prepare single cell suspensions of hES cells, the cells were washed twice with PBS, then incubated in 0.05% trypsin/EDTA (InVitrogen) for 5 minutes at 37° C. […] For low-density survival assays, trypsinized cells were counted using a hemocytometer and 500 cells were plated in each well of 96-well plate containing MEFs or coated with Matrigel (BD Biosciences). […] Individual hES cells or hES cell colonies were counted manually on an inverted microscope. […]
# hES cells [3] = assay: low-density survival assay with individual neurotrophins on MEFs or Matrigel; format: cell-based, human; conditions: 500 cells/well on MEFs or Matrigel, 0.01-100 ng/ml, 4-5 days
# Description: FIG. 4. Individual neurotrophins have dose-dependent effects on hES cell survival; a. Effect of NTs on hES cell survival at low-density on MEFs. hES cells were trypsinized and plated at low density (500 cells per well) on MEFs in 96-well plates in the presence of NT3, BDNF, NT4, NGF or hES medium lacking added growth factor; After 4-5 days, the colonies (comprised of approximately 7-11 cells) were fixed and stained for alkaline phosphatase; b. […] NTs (BDNF, NT4 and NT3) also have statistically significant differences between concentrations of 0.01-100 ng/ml at p<0.05; c. Phase contrast images (at 4×) of morphology of hES cell colonies observed on MEFs or Matrigel™ in the low-density survival assay.
# Human ES cell lines H1 and H9 were cultured as described by Thornson and colleagues^15 in high glucose DMEM supplemented with L-glutanine, non-essential amino acids, serum replacement (Invitrogen) and 4 ng/ml basic Fibroblast growth factor (Invitrogen). Mouse embryo fibroblasts (MEFs) (Specialty Media). were plated at 5-7×10^6 cells/ml. To prepare single cell suspensions of hES cells, the cells were washed twice with PBS, then incubated in 0.05% trypsin/EDTA (InVitrogen) for 5 minutes at 37° C. The cells were triturated with a 5-ml pipette until a single cell suspension was obtained. Trypsin inhibitor (InVitrogen) was added and the cell suspension filtered through a […] (Fisher Scientific) to remove clumps and MEFs. For clonal survival assays, single hES cells were diluted to clonal density and plated into a well of a 96-well plate containing MEFs. For low-density survival assays, trypsinized cells were counted using a hemocytometer and 500 cells were plated in each well of 96-well plate containing MEFs or coated with Matrigel (BD Biosciences). To visualize hES colonies, cultures were fixed in 4% para-formaldehyde in PBS for 30 minutes, washed once in PBS, once in distilled H2O, then stained for alkaline phosphatase activity as described previously^25. Individual hES cells or hES cell colonies were counted manually on an inverted microscope. NGF, BDNF, NT3 and NT4 were purchased from Peprotech. The TRK inhibitors GW441756 (Sigma) and K252A (Calbiochem), PI-3K inhibitor, MAPK inhibitors, STAT3 inhibitor and control peptides (all from Calbiochem) were prepared according to the manufacturer's instructions. For the antibody blocking experiments, antibodies to NGF, NT3, NT4 and BDNF as well as a control antibody were obtained from Promega. Antibodies were added to culture medium at a concentration of 20 ug/ml. Following culture, the cultures were fixed and stained for alkaline phosphatase activity as described above. Each experiment consisted of at least four replicates per treatment and each experiment was repeated at least three times. […]
molecule,measurement,setting,value
Cn1cc(/C=C2\C(=O)Nc3cccnc32)c2ccccc21 [GW441756],effect on hES cell survival,hES cells [1],statistically-significant and dose-dependent effects on hES cell survival
same,"selectivity for TRKs over many kinases including c-Src, VEGFR2, Raf and CDK1",TRKs,"10-fold, or in some cases 100-fold"
COC(=O)[C@@]1(O)C[C@H]2O[C@]1(C)n1c3ccccc3c3c4c(c5c6ccccc6n2c5c31)C(=O)NC4 [K252a],effect on hES cell survival,hES cells [1],statistically-significant and dose-dependent effects on hES cell survival
CS/C(N)=C(C#N)/C(C#N)=C(\N)SC [UO124],effect on hES cell survival,hES cells [2],no effect on hES cell survival
nerve growth factors [NGF],effect on hES cell survival,hES cells [3],slight increase in hES cell survival
COc1cccc(-c2cc(=O)c3ccccc3o2)c1N [PD98059],effect on hES cell survival,hES cells [2],no effect on hES cell survival
B1,effect on hES cell survival,hES cells [3],"potent, dose dependent effects on hES cell survival"
B2,effect on hES cell survival,hES cells [3],"potent, dose dependent effects on hES cell survival"
B3,effect on hES cell survival,hES cells [3],"potent, dose dependent effects on hES cell survival"
